Test results from paper PMC4506051, “Pharmacokinetic Profiles of Active Ingredients and Its Metabolites Derived from Rikkunshito, a Ghrelin Enhancer, in Healthy Japanese Volunteers: A Cross-Over, Randomized Study” (PLoS ONE, 2015).

Legend:
[1] = Randomized crossover quantitative trial: plasma pharmacokinetics of nine ingredients after rikkunshito 2.5, 5.0 or 7.5 g; conditions: for AUC(0-t) / Cmax / Tmax / half-life: human, plasma, po; for AUC(0-t): AUC0-last; for AUC(0-t) / Cmax / half-life / t 1/2: geometric mean (95% CI); for Cmax: C max; for Tmax: Median t max (range); for Tmax / Median t max (range): median (minimum–maximum)
Text: The first trial was a nonrandomized, open-label, one-period design. The second trial was a randomized, open-label, three-arm, three-period design (Fig 1). With respect to inclusion criteria, the studies included healthy Japanese adults between 20 and 45 years of age with a body mass index between 18 and 25 who were willing and able to comply with the study requirements. Exclusion criteria for this study included a history of significant liver, heart, or vessel disease and consumption of supplements that contained any rikkunshito ingredients or any drug within 3 days to 1 week before the first dose. Other standard exclusion criteria included relevant allergies, pregnant or nursing females, and any alcohol or nicotine use. The sample size was set as more than 15 based on the Ministry of Health, Labour and Welfare’s guidelines. Subjects allocated to a screening test were randomized to one of three groups by the central allocation system (allocation ratio 1:1:1). A random sequence was generated using a computer. The safety endpoint was evaluated in all volunteers. This endpoint was defined on the basis of a physician’s judgement after examination or observation that a serious adverse event had occurred. Adverse events included death, a life-threatening event, an event requiring hospitalization for treatment or an extended stay in hospital, an event resulting in permanent or temporary disability or dysfunction, an event resulting in a congenital abnormality, or any other serious medical phenomenon. With respect to side effects, no specific conditions were defined, and all adverse events for which no causal relationship with the drug could be excluded were deemed to be side effects. In each stage during the 48-h period following rikkunshito administration, the physician monitored the patient for subjective symptoms, objective findings, swelling, body temperature (axillary), blood pressure (sitting), and pulse (sitting). The physician also conducted a hematological examination to measure the patient’s red blood cell, leucocyte and platelet counts, hemoglobin level, and hematocrit value. A biochemical examination was conducted to determine total protein, blood urea nitrogen, creatinine, uric acid, aspartate aminotransferase, alanine aminotransferase, total bilirubin, alkaline phosphatase, γ-glutamyltranspeptidase albumin, prothrombin time, total cholesterol, C-reactive protein, and potassium to identify any abnormalities in comparison with the subject’s condition prior to administration. All participants fasted for 12 h before administration and 4 h after administration of the study drug.
In the second quantitative trial, 12-mL blood samples were collected at 0 (preadministration), 0.25, 0.5, 1, 2, 3, 4, 6, 8, 10, 12, 24, and 48 h after a single oral administration of rikkunshito (Lot H05142). A total of 3 daily doses were used in this trial, i.e., the clinical dose per administration (2.5 g) as the lowest dose, the clinical daily dose (7.5 g) as the highest dose, and an intermediate dose (5.0 g), to broadly discuss the pharmacokinetic characteristics of the ingredients measured. The trial participants were hospitalized overnight on the day they ingested rikkunshito, and returned home the following day after blood samples were collected at the 24-h time point. The participants returned to the hospital to provide blood samples at 48 h. The blood was immediately centrifuged at 1700 ×g for 15 min to obtain plasma. Plasma fractions were stored at −20°C or lower until analysis.
Plasma, urine, and rikkunshito formulation samples were analyzed for rikkunshito ingredients concentrations using a liquid chromatography–mass spectrometry with tandem mass spectrometer assay (LC–MS/MS; API5000, Triple Quad 6500, or QTRAP5500; AB Sciex, Tokyo, Japan) or gas chromatography–mass spectrometry. Further information of analytical methods can be found at S1 Appendix.

GHS-R = target: T1, GHS-R (Homo sapiens, UniProt Q92847); assay: Ghrelin/GHS-R binding activity, radioligand binding using GHS-R-expressing cells (S1 Fig); conditions: n = 3, S1 Fig
T1 construct: host or cells: GHS-R-expressing cells (printed 'GSH-R-expressing cells')
Method: Supplementary file pone.0133159.s004.tif: S1 Fig Effect of atractylodin and atractylodin carboxylic acid on ghrelin/GHS-R binding activity. Radioligand binding was performed using GSH-R-expressing cells (n = 3). (TIF) Click here for additional data file.

[2] = Dose proportionality (linearity) test by power model for C max and AUC0-last; conditions: for Dose proportionality test using power model, Inference: linear when 90% CI of β included 1, CIlower ≥0.8, and CIupper ≤1.25; for Dose proportionality test using power model, β: rikkunshito 2.5, 5.0 or 7.5 g
Method: The dose proportionality was analyzed via a power model [21, 22]. […] Evaluation of linearity of the dosage-exposure relationship was conducted with Phoenix WinNonlin and SAS 9.2 (SAS Institute, Inc., Cary, NC).

[3] = 2.5 g, rikkunshito 2.5 g single oral, n = 21
[4] = 5 g, rikkunshito 5.0 g single oral, n = 19
[5] = 7.5 g, rikkunshito 7.5 g single oral, n = 19
[6] = rikkunshito 7.5 g single oral, n = 19
[7] = rikkunshito 7.5 g single oral, n = 19, listed as atractylodin carboxylic acid

T1 sequence (Q92847 whole entry, species assumed): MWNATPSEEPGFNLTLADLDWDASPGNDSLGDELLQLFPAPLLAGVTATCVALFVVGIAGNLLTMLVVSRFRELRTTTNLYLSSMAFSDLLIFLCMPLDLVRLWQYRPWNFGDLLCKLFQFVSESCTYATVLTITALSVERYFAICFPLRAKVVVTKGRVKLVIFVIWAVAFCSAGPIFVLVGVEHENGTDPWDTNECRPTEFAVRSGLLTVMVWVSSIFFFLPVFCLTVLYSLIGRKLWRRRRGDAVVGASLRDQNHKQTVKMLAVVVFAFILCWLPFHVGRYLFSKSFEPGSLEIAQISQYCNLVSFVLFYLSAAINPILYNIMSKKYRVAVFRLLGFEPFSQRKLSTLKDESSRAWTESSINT

C max of metabolite relative to unchanged form (atractylodin) ([1]; after administration of 7.5 g rikkunshito): 5.7–31.5 fold
AUC(0-t) [1, 3]: 3.91 ng·h/mL
Cmax [1, 3]: 4.45 ng/mL
Tmax [1, 3]: 15 min
half-life ([1]; 2.5 g, t 1/2, rikkunshito 2.5 g single oral, n = 21): 34.8 min
AUC(0-t) [1, 4]: 8.74 ng·h/mL
Cmax [1, 4]: 9.57 ng/mL
Tmax [1, 4]: 15 min
half-life ([1]; 5 g, t 1/2, rikkunshito 5.0 g single oral, n = 19): 38.2 min
AUC(0-t) [1, 5]: 12.7 ng·h/mL
Cmax [1, 5]: 14.3 ng/mL
t 1/2 [1, 6]: 0.663 (0.560–0.790) h
t 1/2 [1, 7]: < 10 h
Median t max (range) [1, 6]: 0.250 (0.250–0.500) h
Median t max (range) [1, 7]: ≤ 1 h
Ghrelin/GHS-R binding (ghrelin signal enhancement) activity compared with atractylodin (GHS-R): as potent as atractylodin
Dose proportionality test using power model, Inference ([2]; AUC0-last): Linear
Dose proportionality test using power model, β ([2]; AUC0-last): 1.08
Dose proportionality test using power model, Inference ([2]; Cmax): Linear
Dose proportionality test using power model, β ([2]; Cmax): 1.05
Structure (SMILES): O=C(O)/C=C/C#CC#C/C=C/c1ccco1 [Atractylodin carboxylic acid]
